In publication PMC6217552, “Refining the structure−activity relationships of 2-phenylcyclopropane carboxylic acids as inhibitors of O-acetylserine sulfhydrylase isoforms” (Journal of Enzyme Inhibition and Medicinal Chemistry, 2018):
Several values for one entry are separate records, joined by “and”; a condition that tells them apart may be missing. Equal entries are not always repeated. Where two headings read alike, the source gives them in different places.

What was measured:
StOASS-A [1] = molecular target: T1, StOASS-A (Salmonella typhimurium, UniProt P0A1E3); experiment: Direct fluorimetric titration of PLP cofactor fluorescence (dissociation constant); assay type: binding, Salmonella enterica serovar Typhimurium; details: 100 mM HEPES pH 7.0, 1% DMSO, 20 °C; read-out: OASS-A Kd
T1 construct: made in house; host or cells: E. coli
Method: (§1) StOASS-A and StOASS-B, expressed in E. coli, were purified by metal affinity chromatography as described previously. Proteins were more that 95% pure based on SDS-PAGE analysis (data not shown).
(§2) Ligand affinity was measured by direct fluorimetric titrations, monitoring the fluorescence emission spectrum of cofactor PLP upon excitation at 412 nm. 0.1–1 µM OASS was titrated by increasing concentrations of ligand in 100 mM HEPES pH 7.0, 1% DMSO, at 20 °C. The dependence of fluorescence emission intensity on the concentration of compound was fitted to a binding isotherm: I=I0+ΔI·[ligand]/Kd+[ligand] where, I is the fluorescence emission intensity at a given ligand concentration, I 0 is the fluorescence emission intensity in the absence of ligand, ΔI is the amplitude and K d is the dissociation constant. When the K d was lower than the concentration of the protein used in the assay, the dependence of the fluoresecnce emission intensity on ligand concentration was fitted to a quadratic equation that describes tight binding. The fluorescence competitive binding assay, described elsewhere, was used to evaluate whether compounds bind at the active site of the enzyme or to an allosteric site. The assay is based on the formation of a low-affinity, highly fluorescent complex between OASS and 1-ethylcyclopropane-1,2-dicarboxylic acid. Binding of a higher affinity compound to the active site displaces 1-ethylcyclopropane-1,2-dicarboxylic acid and leads to a decrease in the fluorescence emission intensity.

StOASS-B [2] = molecular target: T2, StOASS-B (Salmonella typhimurium, UniProt P29848); experiment: as above; assay type: binding
T2 construct: made in house; host or cells: E. coli
T2 sequence (P29848 1-303): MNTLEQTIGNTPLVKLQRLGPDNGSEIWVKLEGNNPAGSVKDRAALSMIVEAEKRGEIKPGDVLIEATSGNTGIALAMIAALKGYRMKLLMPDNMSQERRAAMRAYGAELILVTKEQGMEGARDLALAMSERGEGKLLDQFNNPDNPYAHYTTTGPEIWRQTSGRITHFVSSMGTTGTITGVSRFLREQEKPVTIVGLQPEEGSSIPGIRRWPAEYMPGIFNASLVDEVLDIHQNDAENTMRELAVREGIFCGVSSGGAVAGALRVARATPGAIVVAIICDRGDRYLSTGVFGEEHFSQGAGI
Method: as §1, §2

[3] = system: Escherichia coli ATCC25922; experiment: Minimal inhibitory concentration (CLSI) in medium with limiting cysteine; assay type: cell-based; details: E. coli ATCC25922, medium with limiting cysteine; data not shown
Method: Minimal inhibitory concentration assays were performed according to the CLSI guidelines (Clinical and Laboratory Standards Institute; Performance Standards for Antimicrobial Susceptibility Testing; Twenty-Fourth Informational Supplement; CLSI document M100-S24, CLSI; 2014.). The compounds were dissolved in DMSO to obtain a stock solution 100-fold more concentrated than the desired higher concentration and then 10 serial dilutions were performed. One microliter of each dilution was transferred to the microtiter plate.
Escherichia coli ATCC25922 was grown until log phase on liquid Mueller–Hinton broth at 37 °C in a shaker at 225 rpm. Bacterial suspension was then centrifuged at 2500 rpm for 15 min and diluted with phosphate buffer to obtain a solution with a turbidity of about 0.5 McFarland. Bacterial suspension was further diluted (1:100) with fresh LB 20%. Fifty microliters of the bacterial suspension containing 10^6 CFU/mL were inoculated into each well, to obtain a final concentration of 5 × 10^5 CFU/mL. Each plate contained growth control wells and sterility check wells.
We investigated the ability of the new set of compounds to interfere with bacterial growth.

StOASS-A [4] = molecular target: T1, StOASS-A; experiment: Steady-state enzyme activity assay, discontinuous ninhydrin cysteine determination; assay type: biochemical, Salmonella enterica serovar Typhimurium; details: 1 mM OAS, 0.6 mM Na2S, 6 nM OASS, 100 mM HEPES pH 7.0, 1% DMSO
Method: as §1
(§3) Enzyme activity under steady-state conditions was measured by a discontinuous method as described previously. Briefly, the reaction was carried out in 100 mM HEPES pH 7.0 in the presence of 6 nM OASS, 60 nM BSA to prevent enzyme adhesion to tube wall, 1 mM OAS (equal to the K m value of this subsrate), 0.6 mM Na2S (a saturating concentration), 1% DMSO and variable concentrations of inhibitor. Reaction was stopped at time intervals by the addition of acetic acid and concentration of cysteine was determined by a modification of the ninhydrin assay. The fractional velocity as a function of inhibitor concentration was determined and IC50 was calculated by the following equation: vi/v0=1/1+(I/IC50) where, v 0 is the reaction velocity in the absence of inhibitor and v i is reaction velocity in the presence of inhibitor at concentration [I].
(§4) For a competitive inhibitor against OAS the IC50 measured under these conditions is about 2⋅K d.

StOASS-B [5] = molecular target: T2, StOASS-B; experiment: as above; assay type: biochemical
Method: as §1, §3, §4

E.coli = system: E.coli; design: method as in manuscript in preparation; details: ref manuscript in preparation, cited from earlier work

T1 sequence (P0A1E3 whole entry): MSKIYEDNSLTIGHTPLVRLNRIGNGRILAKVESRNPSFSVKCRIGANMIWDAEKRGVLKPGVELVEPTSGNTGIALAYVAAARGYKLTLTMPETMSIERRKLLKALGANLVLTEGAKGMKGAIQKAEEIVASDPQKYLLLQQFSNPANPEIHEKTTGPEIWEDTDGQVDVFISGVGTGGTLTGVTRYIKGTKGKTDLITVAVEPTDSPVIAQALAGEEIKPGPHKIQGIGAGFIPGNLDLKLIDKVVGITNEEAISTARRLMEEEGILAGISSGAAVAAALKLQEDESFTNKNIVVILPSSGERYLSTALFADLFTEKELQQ

| Compound | Kd (StOASS-A [1]) | Kd (StOASS-B [2]) | IC50 (StOASS-A [4]) | IC50 (StOASS-B [5]) | also measured |
| --- | --- | --- | --- | --- | --- |
| 1-(4-methylbenzyl)-2-(pyridin-4-yl)cyclopropane-1-carboxylic acid [Compound 5] | 0.4 ± 0.1 µM |  |  |  | Kd (StOASS-B [2]; 100 mM HEPES pH 7.0, 1% DMSO, 20 °C, read-out: OASS-B Kd): 6.1 ± 0.5 µM; Interference with bacterial growth (MIC) [3]: none of the synthesised compounds was able to interfere significantly with bacterial growth |
| Cc1ccc(CC2(C(=O)O)CC2c2ccc([N+](=O)[O-])cc2)cc1 (centres unmarked) [Compound 8, 1-(4-methylbenzyl)-2-(4-nitrophenyl)cyclopropane-1-carboxylic acid] | 61 ± 6 µM | 145 ± 2 µM |  |  |  |
| Cc1ccc(CC2(C(=O)O)CC2c2ccc(CNC(C)C)cc2)cc1 (centres unmarked) [Compound 10, 2-(4-((isopropylamino)methyl)phenyl)-1-(4-methylbenzyl)cyclopropane-1-carboxylic acid] | 155 ± 5 µM |  |  |  |  |
| Cc1ccc(CC2(C(=O)O)CC2c2ccc(N)cc2)cc1 (centres unmarked) [Compound 12, 2-(4-aminophenyl)-1-(4-methylbenzyl)cyclopropane-1-carboxylic acid] | 1.4 ± 0.3 µM | 5.7 ± 0.7 µM |  |  | Interference with bacterial growth (MIC) [3]: none of the synthesised compounds was able to interfere significantly with bacterial growth |
| Cc1ccc(C[C@]2(C(=O)N(C)C3CCOCC3)C[C@H]2c2ccccc2)cc1 [Compound 16, (1R,2S)-1-N-methyl-1-(4-methylbenzyl)-2-phenyl-N-(tetrahydro-2H-pyran-4-yl)cyclopropane-1-carboxamide] |  |  | 17.2 µM and 17 µM | 137 ± 10 µM | Interference with bacterial growth (MIC) [3]: none of the synthesised compounds was able to interfere significantly with bacterial growth |
| CCN1CCCC1CNC(=O)[C@@]1(Cc2ccc(C)cc2)C[C@H]1c1ccccc1 (stereo partly drawn) [Compound 17, (1R,2S)-1-N-((1-ethylpyrrolidin-2-yl)methyl)-1-(4-methylbenzyl)-2-phenylcyclopropane-1-carboxamide] |  |  | > 100 µM | > 100 µM |  |
| Cc1ccc(C[C@]2(C(=O)NCc3ccccc3)C[C@H]2c2ccccc2)cc1 [Compound 18, (1R,2S)-1-N-benzyl-1-(4-methylbenzyl)-2-phenylcyclopropane-1-carboxamide] |  |  | > 100 µM |  | IC50 (StOASS-B [5]; read-out: OASS-B IC50, 1 mM OAS, 0.6 mM Na2S, 6 nM OASS, 100 mM HEPES pH 7.0, 1% DMSO): > 100 µM |
| Cc1ccc(C[C@]2(C(=O)NCc3cccs3)C[C@H]2c2ccccc2)cc1 [Compound 19, (1R,2S)-1-(4-methylbenzyl)-2-phenyl-N-(thiophen-2-ylmethyl)cyclopropane-1-carboxamide] |  |  | > 100 µM | > 100 µM |  |
| Cc1ccc(C[C@]2(C(=O)NCc3nccn3C)C[C@H]2c2ccccc2)cc1 [Compound 20, (1R,2S)-1-N-((1-methyl-1H-imidazol-2-yl)methyl)-1-(4-methylbenzyl)-2-phenylcyclopropane-1-carboxamide] |  |  | > 100 µM | > 100 µM |  |
| C#CCNC(=O)[C@@]1(Cc2ccc(C)cc2)C[C@H]1c1ccccc1 [Compound 21, (1R,2S)-1-(4-methylbenzyl)-2-phenyl-N-(prop-2-yn-1-yl)cyclopropane-1-carboxamide] |  |  | > 100 µM | > 100 µM |  |
| Cc1ccc(C[C@]2(C(=O)NCC3CCCO3)C[C@H]2c2ccccc2)cc1 (stereo partly drawn) [Compound 22, (1R,2S)-1-(4-methylbenzyl)-2-phenyl-N-((tetrahydrofuran-2-yl)methyl)cyclopropane-1-carboxamide] |  |  | > 100 µM | > 100 µM |  |
| N#C[C@@]1(Cc2ccccc2)C[C@H]1c1ccccc1 [Compound 28, (1R,2S)-1-benzyl-2-phenylcyclopropanecarbonitrile] |  |  | > 250 µM |  |  |
| c1ccc(C[C@]2(c3nnn[nH]3)C[C@H]2c2ccccc2)cc1 [Compound 29, (1R,2S)-5-(1-benzyl-2-phenylcyclopropyl)-1H-tetrazole] | 90 ± 14 µM |  |  |  |  |
| O=C(O)C1(Cc2ccncc2)CC1c1ccccc1 (centres unmarked) [Compound 33, 2-phenyl-1-(pyridin-4-ylmethyl)cyclopropane-1-carboxylic acid] | 24 ± 2 µM | 275 ± 42 µM |  |  | Interference with bacterial growth (MIC) [3]: none of the synthesised compounds was able to interfere significantly with bacterial growth |
| O=C(O)C1(Cn2ccnc2)CC1c1ccccc1 (centres unmarked) [Compound 47, 1-((1H-imidazol-1-yl)methyl)-2-phenylcyclopropane-1-carboxylic acid] | 7.6 ± 0.5 µM | 397 ± 42 µM |  |  |  |
| O=C(O)C1(Cn2cccn2)CC1c1ccccc1 (centres unmarked) [Compound 48, 1-((1H-pyrazol-1-yl)methyl)-2-phenylcyclopropane-1-carboxylic acid] | 1.5 ± 0.2 µM | 96 ± 7 µM |  |  |  |
| O=C(O)C1(Cn2cccc2)CC1c1ccccc1 (centres unmarked) [Compound 49, 1-((1H-pyrrol-1-yl)methyl)-2-phenylcyclopropane-1-carboxylic acid] | 0.5 ± 0.1 µM | 22 ± 2 µM |  |  |  |
| O=C(O)C1(Cn2cncn2)CC1c1ccccc1 (centres unmarked) [Compound 50, 1-((1H-1,2,4-triazol-1-yl)methyl)-2-phenylcyclopropane-1-carboxylic acid] | 18 ± 5 µM | 250 ± 14 µM |  |  |  |
| Cc1ccc(C[C@@]2(C(=O)O)C[C@H]2c2ccccc2)cc1 [II, reference compound] | 0.03 ± 0.01 µM | 0.5 ± 0.1 µM |  |  | Inhibitory activity on cell growth (E.coli; E.coli, minimal medium): failed to show appreciable inhibitory activity on cell growth; MIC with permeabilizing agent (E.coli; co-administration of sub-lethal concentrations of polymyxin B nonapeptide (PMBN)): led to a measurable MIC |
